{"source": "paper PMC2935846", "about": "(Journal of the American Chemical Society, 2009)", "key": {"[1]": {"assay": "Leakage of terbium from lipid vesicles", "settings": "peptide:lipid 1:100, method as in earlier work"}, "E. coli cells": {"tested_on": "E. coli cells", "assay": "SYTOX Green uptake", "settings": "5 μM peptide; for SYTOX Green influx into E. coli (in words): E. coli cells in PBS"}, "C. neoformans cells": {"tested_on": "C. neoformans cells", "assay": "SYTOX Green uptake", "type": "cell-based, Cryptococcus neoformans", "settings": "5 μM peptide, 2 × 10^7 cells/mL in PBS, 1 μM SYTOX Green"}, "[2]": {"tested_on": "E. coli cytoplasmic membrane", "assay": "Membrane depolarization, diSC3", "type": "cell-based, Escherichia coli", "settings": "E. coli 2 × 10^7 cells/mL, 50 nM diSC3(5)"}}, "data": [{"smiles": "CC[C@H](C)[C@H](N)C(=O)N[C@@H](CC(C)C)C(=O)N1CCC[C@H]1C(=O)N[C@@H](Cc1c[nH]c2ccccc12)C(=O)N[C@@H](CCCCN)C(=O)N[C@@H](Cc1c[nH]c2ccccc12)C(=O)N1CCC[C@H]1C(=O)N[C@@H](Cc1c[nH]c2ccccc12)C(=O)N[C@@H](Cc1c[nH]c2ccccc12)C(=O)N1CCC[C@H]1C(=O)N[C@@H](Cc1c[nH]c2ccccc12)C(=O)N[C@@H](CCCNC(=N)N)C(=O)N[C@@H](CCCNC(=N)N)C(N)=O", "note": "[Indolicidin]", "values": [{"measurement": "% of Tb leakage, P:L 1:100", "setting": "[1]", "result": 8, "unit": "%"}, {"measurement": "SYTOX Green influx into E. coli (in words)", "setting": "E. coli cells", "result": "only a very small amount of dye influx"}]}, {"smiles": "CC[C@H](C)[C@H](NC(=O)CN)C(=O)NCC(=O)N[C@@H](C)C(=O)N[C@H](C(=O)N[C@@H](CC(C)C)C(=O)N[C@@H](CCCCN)C(=O)N[C@H](C(=O)N[C@@H](CC(C)C)C(=O)N[C@H](C(=O)N[C@H](C(=O)NCC(=O)N[C@@H](CC(C)C)C(=O)N1CCC[C@H]1C(=O)N[C@@H](C)C(=O)N[C@@H](CC(C)C)C(=O)N[C@H](C(=O)N[C@@H](CO)C(=O)N[C@@H](Cc1c[nH]c2ccccc12)C(=O)N[C@H](C(=O)N[C@@H](CCCCN)C(=O)N[C@@H](CCCNC(=N)N)C(=O)N[C@@H](CCCCN)C(=O)N[C@@H](CCCNC(=N)N)C(=O)N[C@@H](CCC(N)=O)C(=O)N[C@@H](CCC(N)=O)C(N)=O)[C@@H](C)CC)[C@@H](C)CC)[C@@H](C)O)[C@@H](C)O)C(C)C)C(C)C", "note": "[Melittin]", "values": [{"measurement": "permeabilization of fungal cells, SYTOX Green (in words)", "setting": "C. neoformans cells", "result": "completely permeabilizes the fungal cells in just a few minutes"}, {"measurement": "% of Tb leakage, P:L 1:100", "setting": "[1]", "result": 100, "unit": "%"}, {"measurement": "time to 50% of the maximum SYTOX Green uptake", "setting": "E. coli cells; E. coli in PBS", "result": "about 15 minutes"}, {"measurement": "time to complete SYTOX Green leakage", "setting": "E. coli cells; E. coli in PBS", "result": "≤ 25", "unit": "min"}, {"measurement": "time of membrane potential dissipation", "setting": "[2]; 5 μM peptide, 25°C", "result": "less than 30 seconds"}]}, {"smiles": "CC1(C)S[C@@H]2[C@H](NC(=O)[C@H](N)c3ccccc3)C(=O)N2[C@H]1C(=O)O", "note": "[ampicillin]", "values": [{"measurement": "SYTOX Green influx into E. coli (in words)", "setting": "E. coli cells", "result": "no effect"}]}, {"smiles": "CC(C)[C@@H]1NC(=O)[C@H](C)OC(=O)[C@@H](C(C)C)NC(=O)[C@@H](C(C)C)OC(=O)[C@H](C(C)C)NC(=O)[C@H](C)OC(=O)[C@@H](C(C)C)NC(=O)[C@@H](C(C)C)OC(=O)[C@H](C(C)C)NC(=O)[C@H](C)OC(=O)[C@@H](C(C)C)NC(=O)[C@@H](C(C)C)OC1=O", "note": "[valinomycin]", "values": [{"measurement": "collapse of the membrane potential (in words)", "setting": "[2]; 40 μM", "result": "Complete collapse of the membrane potential"}]}]}
